Measurements from BindingDB's records for patent US10196390 (Nimbus Lakshmi, Inc., 2019).

Target: Tyrosine-protein kinase JAK2 (Homo sapiens, UniProt O60674)
Sequence (O60674 whole entry): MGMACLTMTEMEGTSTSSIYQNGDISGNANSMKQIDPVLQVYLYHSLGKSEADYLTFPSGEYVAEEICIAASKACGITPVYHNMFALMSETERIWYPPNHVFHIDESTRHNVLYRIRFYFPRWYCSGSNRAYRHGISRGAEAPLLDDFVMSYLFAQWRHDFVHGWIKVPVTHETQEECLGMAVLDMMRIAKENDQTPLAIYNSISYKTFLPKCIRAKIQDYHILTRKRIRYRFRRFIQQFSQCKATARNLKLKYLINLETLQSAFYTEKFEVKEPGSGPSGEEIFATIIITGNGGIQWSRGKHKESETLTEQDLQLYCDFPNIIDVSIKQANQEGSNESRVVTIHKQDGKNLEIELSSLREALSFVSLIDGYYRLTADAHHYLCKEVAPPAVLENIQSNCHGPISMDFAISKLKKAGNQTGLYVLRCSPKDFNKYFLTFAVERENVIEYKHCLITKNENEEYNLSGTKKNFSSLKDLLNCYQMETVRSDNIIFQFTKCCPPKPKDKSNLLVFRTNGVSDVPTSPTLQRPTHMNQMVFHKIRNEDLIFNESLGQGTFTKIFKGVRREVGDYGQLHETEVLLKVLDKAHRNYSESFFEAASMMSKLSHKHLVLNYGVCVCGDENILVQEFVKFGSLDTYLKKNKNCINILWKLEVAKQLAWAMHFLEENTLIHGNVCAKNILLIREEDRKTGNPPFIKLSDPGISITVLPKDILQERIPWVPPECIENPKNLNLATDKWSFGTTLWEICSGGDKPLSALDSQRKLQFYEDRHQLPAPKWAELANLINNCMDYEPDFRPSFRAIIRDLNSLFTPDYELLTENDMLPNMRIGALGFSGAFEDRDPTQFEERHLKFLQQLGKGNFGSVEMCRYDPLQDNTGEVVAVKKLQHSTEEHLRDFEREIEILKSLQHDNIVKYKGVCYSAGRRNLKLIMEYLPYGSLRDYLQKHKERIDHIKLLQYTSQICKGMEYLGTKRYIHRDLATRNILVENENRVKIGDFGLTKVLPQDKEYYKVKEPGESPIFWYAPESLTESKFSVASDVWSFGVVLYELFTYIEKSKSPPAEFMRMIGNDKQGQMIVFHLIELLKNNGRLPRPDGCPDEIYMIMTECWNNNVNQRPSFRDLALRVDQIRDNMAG

Compound | Ki
Cc1ccc(Nc2nc(-c3c(F)cccc3F)nc3c2C(=O)NC3)cc1 [US10196390, Compound I-21] | > 1000 nM
COC(=O)Cc1ncc(Nc2nc(-c3c(F)cccc3F)nc3c2C(=O)NC3)cn1 [US10196390, Compound I-166] | > 1000 nM
CCNC(=O)Cc1ncc(Nc2nc(-c3c(F)cccc3F)nc3c2C(=O)NC3)cn1 [US10196390, Compound I-169] | > 1000 nM
O=C1NCc2nc(-c3c(F)cccc3F)nc(Nc3ccc(OC(F)(F)F)cc3)c21 [US10196390, Compound I-184] | > 1000 nM
O=C1NCc2nc(-c3c(F)cccc3F)nc(Nc3ccc(C4CCCCC4)cc3)c21 [US10196390, Compound I-197] | > 1000 nM
O=C1NCc2nc(-c3c(F)cccc3F)cc(Nc3ccc(N4CCCC4)cn3)c21 [US10196390, Compound I-205] | > 1000 nM
O=C1NCc2nc(-c3c(F)cccc3F)cc(Nc3ccc(N4CCC5(CC5)C4)cn3)c21 [US10196390, Compound I-233] | > 1000 nM
O=C1NCc2nc(-c3c(F)cccc3F)cc(Nc3ccc(F)cn3)c21 [US10196390, Compound I-234] | < 10 nM
O=C1NCc2nc(-c3c(F)cccc3F)nc(Nc3ccc(S(=O)(=O)C(F)(F)F)cc3)c21 [US10196390, Compound I-236] | > 1000 nM
CC(C)N1CCN(c2ccc(Nc3cc(-c4c(F)cccc4F)nc4c3C(=O)NC4)nc2)CC1 [US10196390, Compound I-256] | < 10 nM
COc1ccc(Nc2cc(-c3c(F)cccc3C#N)nc3c2C(=O)NC3)nc1 [US10196390, Compound I-258] | < 10 nM
CCN(CC)C(=O)c1ccc(Nc2cc(-c3c(F)cccc3F)nc3c2C(=O)NC3)cc1 [US10196390, Compound I-259] | < 10 nM
C[C@H]1COC[C@H](C)N1c1ccc(Nc2cc(-c3c(F)cccc3F)nc3c2C(=O)NC3)nc1 [US10196390, Compound I-264] | < 10 nM
CC1(C)CCC(=O)N1c1ccc(Nc2cc(-c3c(F)cccc3F)nc3c2C(=O)NC3)nc1 [US10196390, Compound I-272] | < 10 nM
CN(c1ccc(Nc2cc(-c3c(F)cccc3F)nc3c2C(=O)NC3)nc1)C(C)(C)C [US10196390, Compound I-274] | < 10 nM
O=C1NCc2nc(-c3c(F)cccc3F)cc(Nc3ccc(NS(=O)(=O)C(F)F)cn3)c21 [US10196390, Compound I-277] | < 10 nM
CC(C)(C)Nc1ccc(Nc2cc(-c3c(F)cccc3F)nc3c2C(=O)NC3)nc1 [US10196390, Compound I-278] | < 10 nM
CCNC(=O)c1ccc(Nc2cc(-c3c(F)cccc3C#N)nc3c2C(=O)NC3)nc1 [US10196390, Compound I-282] | < 10 nM
O=C1NCc2nc(-c3c(F)cccc3F)cc(Nc3ccc(C(=O)N4CCC(F)(F)CC4)cc3)c21 [US10196390, Compound I-283] | < 10 nM
C[C@@H]1COC[C@@H](C)N1C(=O)c1ccc(Nc2cc(-c3c(F)cccc3F)nc3c2C(=O)NC3)cc1 [US10196390, Compound I-285] | < 10 nM
N#Cc1cccc(F)c1-c1cc(Nc2ccc(C(=O)N3CCOCC3)cc2)c2c(n1)CNC2=O [US10196390, Compound I-287] | < 10 nM
CC1CC(O)CC(C)N1c1ccc(Nc2cc(-c3c(F)cccc3F)nc3c2C(=O)NC3)nc1 (stereo not drawn) [US10196390, Compound I-288] | < 10 nM
Cc1ccc(Nc2nc(-c3c(F)cccc3F)nc3c2C(=O)NC3)cc1F [US10196390, Compound I-292] | > 1000 nM
